≈ marks a conversion by molar mass, not a printed value. Calls of active or inactive are those of the source. The calls are words filed in the database; no cut-off is given here.
Columns and labels:
[1] = test system: Human alphaherpesvirus 1; assay: Antiviral activity against HSV-1 infected in African green monkey Vero cells preincubated with virus for 5 mins; type: functional, organism-based; settings: Human alphaherpesvirus 1, Vero
[2] = Cytotoxicity against African green monkey Vero cells assessed as reduction in cell viability after 24 hrs by microscopic method; type: cell-based; settings: chlorocebus sabaeus
[3] = test system: Tick-borne encephalitis virus; assay: Antiviral activity against TBEV Absettarov infected in PEK cells assessed as plaque reduction preincubated for 1 hr followed by overlaying with 1.26% methylcellulose and measured after 6 days by gentian violet staining-based assay; type: functional, organism-based
[4] = Cytotoxicity against African green monkey Vero cells assessed as reduction in cell viability after 7 days by microscopic method; type: cell-based; settings: chlorocebus sabaeus
[5] = Cytotoxicity against PEK cells assessed as reduction in cell viability after 24 hrs by microscopic method; type: cell-based, Sus scrofa; settings: pig
[6] = Cytotoxicity against PEK cells assessed as reduction in cell viability after 7 days by microscopic method; type: cell-based, Sus scrofa; settings: pig
[7] = Cytotoxicity against human RD cells assessed as reduction in cell viability after 24 hrs by microscopic method; type: cell-based
[8] = Cytotoxicity against human RD cells assessed as reduction in cell viability after 7 days by microscopic method; type: cell-based
[9] = test system: Enterovirus A71; assay: Antiviral activity against Enterovirus A71 isolate 46973 infected in human RD cells assessed as reduction in virus induced cytopathic effect preincubated with viral suspension for 1 hr followed by cell addition measured after 5 to 7 days; type: functional, organism-based
[10] = Cytotoxicity against PEK cells assessed as formation of syncytium-like patterns of cells at 50 uM after 7 days by microscopic method; type: cell-based, Sus scrofa; settings: pig, 168 h
[11] = test system: Vero; assay: Cytotoxicity against African green monkey Vero cells assessed as formation of syncytium-like patterns of cells at 50 uM after 7 days by microscopic method; type: cell-based; settings: chlorocebus sabaeus, 168 h
[12] = test system: RD; assay: Cytotoxicity against human RD cells assessed as formation of syncytium-like patterns of cells at 50 uM after 7 days by microscopic method; type: cell-based; settings: 168 h
[13] = test system: Poliovirus 1; assay: Antiviral activity against poliovirus type 1 sabin 1; type: functional, organism-based
[14] = test system: Echovirus; assay: Antiviral activity against Echovirus 30 isolate 48461; type: functional, organism-based
[15] = Cytotoxicity against PEK cells assessed as reduction in metabolic activity at >20 uM after 24 hrs by CellTiter-Blue assay; type: ADME, cell-based, Sus scrofa; settings: pig
[16] = test system: Vero; assay: Cytotoxicity against African green monkey Vero cells assessed as reduction in metabolic activity at >20 uM after 24 hrs by CellTiter-Blue assay; type: ADME, cell-based; settings: chlorocebus sabaeus
[17] = test system: RD; assay: Cytotoxicity against human RD cells assessed as reduction in metabolic activity at >20 uM after 24 hrs by CellTiter-Blue assay; type: ADME, cell-based
[18] = Solubility of compound in 15% DMSO by spectrophotometric analysis; type: physicochemical
[19] = test system: Human alphaherpesvirus 2; assay: Antiviral activity against HSV-2 infected in African green monkey Vero cells assessed as plaque reduction preincubated for 10 mins inocula removed after 1 hr followed by overlaying with 2% methylcellulose and measured after 1 to 2 days by crystal violet staining based assay; type: functional, organism-based; settings: Human alphaherpesvirus 2, Vero
[20] = test system: Sindbis virus; assay: Antiviral activity against Sindbis virus infected in African green monkey Vero cells assessed as plaque reduction preincubated for 10 mins inocula removed after 1 hr followed by overlaying with 2% methylcellulose and measured after 1 to 2 days by crystal violet staining based assay; type: functional, organism-based
[21] = test system: Hepatitis C virus; assay: Antiviral activity against HCV JFH1 infected in human Huh7.5 cells assessed as NS3 expression by western blot analysis; type: functional, organism-based, Hepacivirus hominis; settings: JFH1, Huh7.5
[22] = test system: Vesicular stomatitis virus; assay: Antiviral activity against VSV infected in African green monkey Vero cells assessed as plaque reduction preincubated for 10 mins inocula removed after 1 hr followed by overlaying with 2% methylcellulose and measured after 1 to 2 days by crystal violet staining based assay; type: functional, organism-based
[23] = test system: Influenza A virus; assay: Antiviral activity against influenza A virus H1N1 infected in dog MDCK cells assessed as plaque reduction preincubated for 10 mins inocula removed after 1 hr followed by overlaying with 0.8% agarose and measured after 1 to 2 days by crystal violet staining based assay; type: functional, organism-based
[24] = test system: Influenza A virus; assay: Antiviral activity against influenza A virus H3N2 infected in dog MDCK cells assessed as plaque reduction preincubated for 10 mins inocula removed after 1 hr followed by overlaying with 0.8% agarose and measured after 1 to 2 days by crystal violet staining based assay; type: functional, organism-based
[25] = Selectivity index, ratio of CC50 for African green monkey Vero cells to EC50 for VSV infected in Vero cells; type: toxicity, cell-based; settings: read-out: Ratio CC50/EC50
[26] = test system: Murid betaherpesvirus 1; assay: Antiviral activity against mCMV infected in mouse NIH3T3 cells assessed as reduction in virus induced cytopathogenicity; type: functional, organism-based; settings: Murid betaherpesvirus 1, NIH3T3
[27] = Selectivity index, ratio of CC50 for human Huh7.5 cells to EC50 for HCV JFH1 infected in Huh7.5 cells; type: toxicity, cell-based; settings: read-out: Ratio CC50/EC50
[28] = Selectivity index, ratio of CC50 for African green monkey Vero cells to EC50 for Sindbis infected in Vero cells; type: toxicity, cell-based; settings: read-out: Ratio CC50/EC50
[29] = Selectivity index, ratio of CC50 for African green monkey Vero cells to EC50 for HSV-1 infected in Vero cells; type: toxicity, cell-based; settings: read-out: Ratio CC50/EC50
[30] = Selectivity index, ratio of CC50 for African green monkey Vero cells to EC50 for HSV-2 infected in Vero cells; type: toxicity, cell-based; settings: read-out: Ratio CC50/EC50
[31] = Selectivity index, ratio of CC50 for MDCK cells to EC50 for H1N1 infected in MDCK cells; type: toxicity, cell-based; settings: dog, read-out: Ratio CC50/EC50
[32] = Selectivity index, ratio of CC50 for MDCK cells to EC50 for H3N2 infected in MDCK cells; type: toxicity, cell-based; settings: dog, read-out: Ratio CC50/EC50
[33] = Selectivity index, ratio of CC50 for mouse NIH3T3 cells to EC50 for mCMV infected in NIH3T3 cells; type: toxicity, cell-based; settings: read-out: Ratio CC50/EC50
[34] = Enterovirus A, isolate 46973, RD, read-out: EC50

Row | Compound | EC50 [1] [nM] | CC50 at 24 h [2] [nM] | EC50 [3] [nM] | CC50 at 168 h [4] [nM] | CC50 at 24 h [5] [nM] | CC50 at 168 h [6] [nM] | CC50 at 24 h [7] [nM] | CC50 at 168 h [8] [nM] | Activity [10] | Activity [11] | Activity [12] | Activity [13] | Activity [14] | also measured
1 | CC(C)(C)C(=O)OC[C@@H]1CC[C@H](n2cc(C#Cc3ccc4c5cccc6cccc(c7cccc3c74)c65)c(=O)[nH]c2=O)O1 | 190 | – | – | – | – | – | – | – | – | – | – | – | – | –
2 | CC(C)(CO)[C@@H](O)CNC(=O)Cn1cc(C#Cc2ccc3c4cccc5cccc(c6cccc2c63)c54)c(=O)[nH]c1=O | – | 38000 | 19 | > 50000 | > 50000 | > 50000 | 76000 | 76000 | Toxic | Toxic | Toxic | inactive | inactive | EC50 [9, 34]: 108000 nM; Activity [15]: Non-Toxic; Activity [16]: Non-Toxic; Activity [17]: Toxic
3 | O=C(Cn1cc(C#Cc2ccc3c4cccc5cccc(c6cccc2c63)c54)c(=O)[nH]c1=O)NCCCCO | – | > 50000 | 20 | > 50000 | > 50000 | > 50000 | 76000 | 81000 | Toxic | Toxic | Toxic | inactive | inactive | EC50 [9, 34]: 56000 nM; Activity [15]: Non-Toxic; Activity [16]: Non-Toxic; Activity [17]: Toxic
4 | CC(C)(C)C(=O)OCn1c(=O)c(C#Cc2ccc3c4cccc5cccc(c6cccc2c63)c54)cn(CC(=O)N(CCO)CCO)c1=O | – | 38000 | 0.44 | > 50000 | > 50000 | > 50000 | 19000 | 14000 | Toxic | Toxic | Toxic | inactive | inactive | EC50 [9]: Not Active; solubility [18]: 1000 µM (≈ 648 µg/mL)
5 | CC(C)(C)C(=O)OCn1c(=O)c(C#Cc2ccc3c4cccc5cccc(c6cccc2c63)c54)cn(CC(=O)NCCCO)c1=O | – | 38000 | 0.43 | > 50000 | > 50000 | > 50000 | 19000 | 10000 | Toxic | Toxic | Toxic | inactive | inactive | EC50 [9]: Not Active; solubility [18]: 49 µM (≈ 30.2 µg/mL)
6 | O=c1[nH]c(=O)n([C@@H]2O[C@H](CO)[C@@H](O)[C@@H]2O)cc1C#Cc1ccc2c3cccc4cccc(c5cccc1c52)c43 | 2 to 283 | – | 21 | – | > 50000 | > 50000 | – | – | Toxic | Toxic | Toxic | inactive | inactive | EC50 [19]: 2 to 283 nM; EC50 [20]: 2 to 283 nM; EC50 [21]: 2 to 283 nM; EC50 [22]: 2 to 283 nM; EC50 [23]: 2 to 283 nM; EC50 [24]: 2 to 283 nM; selectivity ratio [25]: > 3000; EC50 [26]: 2 to 283 nM; selectivity ratio [27]: > 3000; selectivity ratio [28]: > 3000; selectivity ratio [29]: > 3000; selectivity ratio [30]: > 3000; selectivity ratio [31]: > 3000; selectivity ratio [32]: > 3000; selectivity ratio [33]: > 3000
7 | O=c1[nH]c(=O)n([C@H]2C[C@H](O)[C@@H](CO)O2)cc1C#Cc1ccc2c3cccc4cccc(c5cccc1c52)c43 | 48 | – | – | – | – | – | – | – | – | – | – | – | – | EC50 [19]: 2 to 283 nM; EC50 [20]: 2 to 283 nM; EC50 [21]: 2 to 283 nM; EC50 [22]: 2 to 283 nM; EC50 [23]: 2 to 283 nM; EC50 [24]: 2 to 283 nM; selectivity ratio [25]: > 3000; EC50 [26]: 2 to 283 nM; selectivity ratio [27]: > 3000; selectivity ratio [28]: > 3000; selectivity ratio [29]: > 3000; selectivity ratio [30]: > 3000; selectivity ratio [31]: > 3000; selectivity ratio [32]: > 3000; selectivity ratio [33]: > 3000

Reference: ChEMBL document CHEMBL4346677, “Compounds based on 5-(perylen-3-ylethynyl)uracil scaffold: High activity against tick-borne encephalitis virus and non-specific activity against enterovirus A” (Eur J Med Chem, 2019)
